Where two headings read alike, the source gives them in different places.
What was measured:
recombinant BARS = biological target: T1, recombinant BARS (Rattus norvegicus, UniProt Q9Z2F5); assay: NAD competition assay ([3H]-NAD+ binding to BARS, dot blot); conditions: for NAD Displac. (%): 10 μM [3H]-NAD+, molecules 0.01 to 100 μM, 2 h 37° C.; for competition for the binding of NAD to BARS (selection): 0.01 to 100 μM
T1 construct: His; made in house
Method: Five μg of recombinant BARS were incubated for 2 h at 37° C. in 100 μl buffer (20 mM HEPES at pH 7.4, 25 mM NaCl and 10 μM [^3H]-NAD^+ (specific activity: 1 μCi/μmol)) in the presence of a range of concentrations (from 0.01 to 100 μM) of the molecules listed in table 1. At the end of the incubation BARS was recovered by trapping it to nitrocellulose using a Dot-Blot apparatus (Bio-Rad Laboratories, UK) according to manufacturer instruction. The samples were washed three times in ice-cold HEPES buffer (20 mM, pH 7.4). The amount of radiolabelled NAD bound to BARS was measured using a BetaImager (BioSpace Lab); the total amount of BARS bound to nitrocellulose was evaluated by red ponceau staining (Sigma-Aldrich) according to manufacturer instructions. Quantitative analyses were performed using GraphPad Prism Software.
A second virtual library was performed using the whole KEGG COMPOUND Database. […] To rank the molecules according to their affinity for BARS, the inventors set up a new assay for determining the capability of the 28 candidate molecules to compete for the binding of NAD to BARS. To this purpose, radiolabeled NAD and recombinant BARS were incubated for 2 h in the presence of a range of concentrations (from 0.01 to 100 μM) of the molecules. At the end of the incubation BARS was recovered by trapping it to nitrocellulose using a dot blot apparatus, and the radiolabelled NAD bound to BARS was evaluated by measuring the radioactivity using a BetaImager (BioSpace Lab).

HeLa cells = assay: Cell viability assay (Hoechst cell number); conditions: for effect on cell viability: even at 100 microM; for 50% Viability: 0.01 to 100 μM
Method: Quantitative analyses were performed using a GraphPad Prism Software.
At the end of the incubation the cells have been fixed, stained with Hoechst to label the DNA and analysed using a fluorescence microscope for the automated images acquisition and analysis (Olympus ScaR). […] An EC50 was calculated for the remaining molecules.

[1] = tested on: Zonula Occludens (ZO1), CtBP target gene; assay: Expression of CtBP target genes, Western blot of Zonula Occludens; assay type: cell-based, human; conditions: HeLa; for protein levels of Zonula Occludes: 2 and 4 days, Western blot; for minimal effective concentration: minimum effective concentration, Zonula Occludens protein, read-out: CtBP target genes increase (corepressive activity inhibition) Western Blot
Method: At the end of the incubations part of the samples was analyzed by western blot. To this purpose, the samples were washed with ice-cold PBS and lysed in 100 μl of SDS sample buffer. The samples were then separated on 8% SDS-PAGE gels, transferred onto nitrocellulose, and subjected to Western blotting using an antibody against Zonula Occludens (anti ZO1; Cell Signaling N. Cat. 5406) and an antibody against GAPDH (AbD Serotec) as a reference. The anti ZO1 antibody was used at a 1:1000 dilution; the anti GAPDH antibody was used at an 1:100000 dilution. The nitrocellulose membranes were subjected to ECL (as described above). The freeware ImageJ software (http://imagej.nih.gov) was used for quantitative analysis.

[2] = Homo sapiens, 48 h, read-out: 50% Viability

Row | Structure (SMILES) | NAD Displac. (%) (recombinant BARS) | effect on cell viability (HeLa cells; 48 h) | protein levels of Zonula Occludes [1] | minimal effective concentration ([1]; Homo sapiens) [µM] | competition for the binding of NAD to BARS (selection) (recombinant BARS) | EC50 (HeLa cells; [2]) [µM] | EC50 (HeLa cells; read-out: 50% Viability, 48 h, 0.01 to 100 μM) [µM] | minimal effective concentration [1] [µM] | 50% Viability (HeLa cells; 48 h)
1 | C[C@H]1[C@H](NC(=O)C(=NOC(C)(C)C(=O)O)c2csc(N)n2)C(=O)N1S(=O)(=O)O (stereo in doubt) [C28, 2-[(Z)-[1-(2-amino-1,3-thiazol-4-yl)-2-[[(2S,3S)-2-methyl-4-oxo-1-sulfoazetidin-3-yl]amino]-2-oxoethylidene]amino]oxy-2-methylpropanoic acid] | 15 | did not affect (or had minor effects) | able to increase | 1 | – | – | – | – | –
2 | CC(=O)CC(c1ccccc1)c1c(O)c2ccccc2oc1=O (stereo not drawn) [C1, 4-Hydroxy-3-(3-oxo-1-phenylbutyl)-2H-1-benzopyran-2-one] | 15 | did not affect (or had minor effects) | able to increase | 100 | best competitors | > 100 | – | – | –
3 | NS(=O)(=O)Oc1ccc2c3c(c(=O)oc2c1)CCCCC3 [C3, Sulfamic acid 6-oxo-6,7,8,9,10,11-hexahydrocyclohepta[c]-1-benzopyran-3-yl ester] | – | – | – | – | – | 10 | – | – | –
4 | CC(=O)CC(c1ccc(Cl)cc1)c1c(O)c2ccccc2oc1=O (stereo not drawn) [C4, 3-[1-(4-chlorophenyl)-3-oxobutyl]-4-hydroxychromen-2-one] | 20 | did not affect (or had minor effects) | able to increase | 10 | best competitors | > 100 | – | – | –
5 | CC(=O)CC(c1ccc([N+](=O)[O-])cc1)c1c(O)c2ccccc2oc1=O (stereo not drawn) [C5, 4-Hydroxy-3-[1-(4-nitrophenyl)-3-oxobutyl]-2H-1-benzopyran-2-one] | – | did not affect (or had minor effects) | – | – | – | > 100 | – | – | –
6 | COc1cc(CNC(=O)CCCC/C=C/C(C)C)ccc1O [C6, N-(4-Hydroxy-3-methoxybenzyl)-8-methyl-6(E)-nonenamide 8-Methyl-N-vanillyl-trans-6-nonenamide] | 20 | did not affect (or had minor effects) | – | – | best competitors | > 100 | – | – | –
7 | O=C1C2C3c4ccccc4C(c4ccccc43)C2C(=O)N1C(CO)(CO)CO [C8, (9R,10S,11S,15R)-13-(1,3-dihydroxy-2-(hydroxymethyl)propan-2-yl)-10,11-dihydro-9H-9,10-[3,4]epipyrroloanthracene-12,14(13H,15H) dione] | – | did not affect (or had minor effects) | able to increase | 10 | – | > 100 | – | – | –
8 | CN1CCc2c(sc(/N=C/c3cccs3)c2C(N)=O)C1 [C9, 6-methyl-2-[(E)-(thiophen-2-ylmethylidene)amino]-4H,5H,6H,7H-thieno[2,3-c]pyridine-3-carboxamide] | – | did not affect (or had minor effects) | able to increase | – | – | – | > 100 | 10 | –
9 | CCCCOc1ccc(C2=N/C(=C\c3cc(OC)c(OC)cc3OC)C(=O)O2)cc1 [C10, (4Z)-2-(4-butoxyphenyl)-4-[(2,4,5-trimethoxyphenyl)methylidene]-4,5-dihydro-1,3-oxazol-5-one] | 30 | did not affect (or had minor effects) | – | – | best competitors | – | – | – | Little
10 | Cc1c(Cc2c(Cl)cccc2Cl)c(=O)oc2cc(OCC(=O)OCC(=O)c3ccc(Cl)cc3)ccc12 [C12, 2-(4-chlorophenyl)-2-oxoethyl 2-{[3-(2,6-dichlorobenzyl)-4-methyl-2-oxo-2H-chromen-7-yl]oxy}acetate] | 23 | did not affect (or had minor effects) | – | – | best competitors | – | – | – | Little
11 | O=C1OC(c2c(O)c3ccccc3oc2=O)c2ccccc21 (stereo not drawn) [C14, 4-hydroxy-3-(3-oxo-1,3-dihydroisobenzofuran-1-yl)-2H-chromen-2-one] | – | – | – | – | – | 10 | – | – | –
12 | COc1ccc(-c2coc3cc(O[C@@H]4O[C@H](CO)[C@@H](O)[C@H](O)[C@H]4O)ccc3c2=O)cc1 [C15, 3-(4-methoxyphenyl)-7-{[(2S,3R,4S,5S,6R)-3,4,5-trihydroxy-6-(hydroxymethyl)oxan-2-yl]oxy}-4H-chromen-4-one] | – | did not affect (or had minor effects) | able to increase | 5 | – | – | – | – | Little
13 | O=C(CCc1ccc(O)cc1)c1c(O)cc(O)cc1O[C@@H]1O[C@H](CO)[C@@H](O)[C@H](O)[C@H]1O [C16, 1-(2,4-dihydroxy-6-{[(2S,3R,4S,5S,6R)-3,4,5-trihydroxy-6-(hydroxymethyl)oxan-2-yl]oxy}phenyl)-3-(4-hydroxyphenyl)propan-1-one] | – | did not affect (or had minor effects) | – | – | – | > 100 | – | – | –
14 | COc1cc(C2Oc3c(O)cc(C4Oc5cc(O)cc(O)c5C(=O)C4O)cc3C2CO)ccc1O (stereo not drawn) [C17, 3beta,5,7-Trihydroxy-2alpha-[7-hydroxy-2beta-(4-hydroxy-3-methoxyphenyl)-3alpha-(hydroxymethyl)-2,3-dihydrobenzofuran-5-yl]-2,3-dihydro-4H-benzo[b]pyran-4-one] | – | did not affect (or had minor effects) | – | – | – | > 100 | – | – | –
15 | O=C(O)Cc1nn(Cc2nc3cc(C(F)(F)F)ccc3s2)c(=O)c2ccccc12 [C18, 2-[4-Oxo-3-[5-(trifluoromethyl)benzothiazol-2-ylmethyl]-3,4-dihydrophthalazin-1-yl]acetic acid] | – | did not affect (or had minor effects) | – | – | – | – | – | – | Little
16 | C#C[C@]1(O)CC[C@H]2[C@@H]3CCc4cc(OC5CCCC5)ccc4[C@H]3CC[C@@]21C [C19, 17alpha-Ethynylestradiol 3-cyclopentyl ether] | – | – | – | – | – | 1 | – | – | –
17 | NC(=O)[C@@H]1CCCN1C(=O)[C@H](Cc1cnc[nH]1)NC(=O)[C@@H]1CCC(=O)N1 [C21, (2S)-N-[(2S)-1-[(2S)-2-carbamoylpyrrolidin-1-yl]-3-(1H-imidazol-5-yl)-1-oxopropan-2-yl]-5-oxopyrrolidine-2-carboxamide] | – | did not affect (or had minor effects) | – | – | – | > 100 | – | – | –
18 | NCc1ccccc1CC(=O)N[C@@H]1C(=O)N2C(C(=O)O)=C(CSc3nnnn3CC(=O)O)CS[C@H]12 [C29, (6R,7R)-7-[2-[2-(Aminomethyl)phenyl]acetamido]-3-[1-(carboxymethyl)-1H-tetrazol-5-ylsulfanylmethyl]-8-oxo-5-thia-1-azabicyclo[4.2.0]-2-octene-2-carboxylic acid] | 35 | did not affect (or had minor effects) | – | – | best competitors | > 100 | – | – | –
